From ChEMBL document CHEMBL4610118 (J Med Chem, 2020)

The compounds below were run against CDK7/Cyclin H/MNAT1 (Homo sapiens, UniProt P50613).
Chain of CDK7/Cyclin H/MNAT1 (P51946 whole entry): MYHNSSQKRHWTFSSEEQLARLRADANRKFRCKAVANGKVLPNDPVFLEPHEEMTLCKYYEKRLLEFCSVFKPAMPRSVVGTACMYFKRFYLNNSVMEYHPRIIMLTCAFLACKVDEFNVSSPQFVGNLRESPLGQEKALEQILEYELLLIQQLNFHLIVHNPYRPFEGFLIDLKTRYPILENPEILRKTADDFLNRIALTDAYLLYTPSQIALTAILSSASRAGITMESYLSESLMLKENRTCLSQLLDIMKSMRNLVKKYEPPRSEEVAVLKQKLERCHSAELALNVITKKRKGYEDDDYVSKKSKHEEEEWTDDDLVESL
Chain of CDK7/Cyclin H/MNAT1 (P50613 whole entry): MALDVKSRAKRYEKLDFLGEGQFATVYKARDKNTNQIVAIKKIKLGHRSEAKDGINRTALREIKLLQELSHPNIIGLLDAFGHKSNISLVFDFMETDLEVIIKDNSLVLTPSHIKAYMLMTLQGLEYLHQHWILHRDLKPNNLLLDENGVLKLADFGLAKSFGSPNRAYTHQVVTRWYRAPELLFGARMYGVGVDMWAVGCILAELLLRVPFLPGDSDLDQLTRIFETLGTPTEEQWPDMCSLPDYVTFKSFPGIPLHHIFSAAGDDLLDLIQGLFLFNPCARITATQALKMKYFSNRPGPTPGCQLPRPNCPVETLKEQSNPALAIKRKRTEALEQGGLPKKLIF
Chain of CDK7/Cyclin H/MNAT1 (P51948 whole entry, further chain): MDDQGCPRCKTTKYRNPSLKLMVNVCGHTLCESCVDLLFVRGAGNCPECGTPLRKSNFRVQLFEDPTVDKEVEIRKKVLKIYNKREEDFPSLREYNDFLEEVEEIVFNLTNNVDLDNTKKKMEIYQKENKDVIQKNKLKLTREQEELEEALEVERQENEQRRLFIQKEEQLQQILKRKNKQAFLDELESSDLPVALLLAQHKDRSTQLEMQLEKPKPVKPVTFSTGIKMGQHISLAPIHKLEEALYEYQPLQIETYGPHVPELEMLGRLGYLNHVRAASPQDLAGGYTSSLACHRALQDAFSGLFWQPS
Description: Inhibition of recombinant human full-length His-tagged CDK7/Cyclin H/MNAT1 expressed in baculovirus infection system using Cdk7/9tide as substrate measured after 1 hr by Alexa Fluor 647 ADP Tracer-based Adapta assay

Row | IC50 [µM] | SMILES
1 | 9.6 | C=CC(=O)Nc1ccc(C(=O)N2CC(Nc3ncc(SCc4ncc(C(C)(C)C)o4)s3)CC(F)(F)C2)cc1 (stereo not given)
2 | 0.609 | C=CC(=O)Nc1ccc(C(=O)N2C[C@H](Nc3ncc(SCc4ncc(C(C)(C)C)o4)s3)CC[C@@H]2C)cc1
3 | 5.54 | C=CC(=O)Nc1ccc(C(=O)N2CCC[C@@H](Nc3ncc(SCc4ncc(C(C)(C)C)o4)s3)C2)cc1F
4 | 5.12 | C=CC(=O)Nc1ccc(C(=O)N2CCC[C@@H](Nc3ncc(Cl)c(SCc4ncc(C(C)(C)C)o4)n3)C2)cc1
5 | > 10 | C=CC(=O)Nc1ccc(C(=O)N2CCC[C@@H](Nc3ncc(SCc4ccncc4)s3)C2)cc1
6 | 3.49 | C=CC(=O)Nc1ccc(C(=O)N2CCC[C@@H](Nc3ncc(SCc4ncc(C(C)(C)C)o4)s3)C2)cc1C(F)(F)F
7 | 3.89 | C=CC(=O)Nc1ccc(C(=O)N2CCC[C@@H](Nc3ncc(SCc4ncc(C(C)(C)C)o4)s3)C2)nc1
8 | > 10 | C=CC(=O)Nc1ccc(C(=O)N2CCC[C@@H](Nc3ncc([S+]([O-])Cc4ncc(C(C)(C)C)o4)s3)C2)cc1 (stereo not given in full)
9 | 7.79 | C=CC(=O)Nc1ccc(C(=O)N2CCC[C@@H](Nc3ncc(SCc4ncc(C(C)(C)C)o4)s3)[C@H]2C)cc1
10 | > 10 | C=CC(=O)Nc1ccc(C(=O)N2CCC[C@@H](Nc3nc(C)c(SCc4ncc(C(C)(C)C)o4)s3)C2)cc1
